Article PMC9283466, “In silico identification of two peptides with antibacterial activity against multidrug-resistant Staphylococcus aureus” (NPJ Biofilms and Microbiomes, 2022)
Values after ≈ are worked out from the molar mass of the structure shown. Like-named read-outs stand apart in the source and are kept apart here.

What was measured:
List. monocytogenes = assay: microbe, parasite or virus in culture; type: cell-based, Listeria monocytogenes; settings: List. monocytogenes, Supplementary Table 5
Experimental: (§1) To determine the antimicrobial activity of the new antimicrobial peptides, HG2 and HG4, their minimum inhibitory concentrations (MICs) were determined by broth microdilution method[51] in cation adjusted Mueller Hinton broth (MHB) following the International Organisation for Standardisation (ISO) 20776-1 standard for MIC testing using a final bacterial inoculum of 5 × 10^5 CFU/ml[52]. […] The peptides dissolved in sterile distilled water were added to bacteria culture and incubated overnight at appropriate conditions. The MICs of the peptides and comparator antibiotics were recorded after 18–24 h. The minimum bactericidal concentrations (MBCs) were also determined and were taken as the lowest concentration of the antimicrobial that prevented the growth of bacterial cells after the subculture of cells (from MIC treatment) onto antibiotic-free media.

[1] = test system: L. monocytogenes NCTC 11994; assay: microbe, parasite or virus in culture; type: cell-based, Listeria monocytogenes; settings: L. monocytogenes NCTC 11994
Experimental: as §1

E. coli K12 = assay: microbe, parasite or virus in culture; type: cell-based, Escherichia coli; settings: E. coli K12
Experimental: as §1

E. coli = assay: microbe, parasite or virus in culture; type: cell-based, Escherichia coli
Experimental: as §1

Sal. typhimurium SL1344 = assay: microbe, parasite or virus in culture; type: cell-based, Salmonella enterica serovar Typhimurium; settings: Sal. typhimurium SL1344
Experimental: as §1

Sal. typhimurium = assay: microbe, parasite or virus in culture; type: cell-based, Salmonella enterica serovar Typhimurium; settings: Sal. typhimurium, Supplementary Table 5
Experimental: as §1

Ent. faecalis JH2-2 = assay: microbe, parasite or virus in culture; type: cell-based, Enterococcus faecalis; settings: Ent. faecalis JH2-2
Experimental: as §1

Ent. faecalis = assay: microbe, parasite or virus in culture; type: cell-based, Enterococcus faecalis; settings: Ent. faecalis, Supplementary Table 5
Experimental: as §1

P. aeruginosa = assay: microbe, parasite or virus in culture; type: cell-based, Pseudomonas aeruginosa; settings: P. aeruginosa, Supplementary Table 5
Experimental: as §1

P. aeruginosa (CF) C3719 = assay: microbe, parasite or virus in culture; type: cell-based, Pseudomonas aeruginosa; settings: P. aeruginosa (CF) C3719
Experimental: as §1

[2] = test system: P. aeruginosa (CF) AMT0060; assay: microbe, parasite or virus in culture; type: cell-based, Pseudomonas aeruginosa; settings: P. aeruginosa (CF) AMT0060
Experimental: as §1

[3] = test system: P. aeruginosa (CF) LES400; assay: microbe, parasite or virus in culture; type: cell-based, Pseudomonas aeruginosa; settings: P. aeruginosa (CF) LES400
Experimental: as §1

P. aeruginosa PA01 = assay: microbe, parasite or virus in culture; type: cell-based, Pseudomonas aeruginosa; settings: P. aeruginosa PA01
Experimental: as §1

S. aureus EMRSA-15 = assay: microbe, parasite or virus in culture; type: cell-based, Staphylococcus aureus; settings: S. aureus EMRSA-15, resistances MRSA, Cip
Experimental: as §1

S. aureus = assay: microbe, parasite or virus in culture; type: cell-based, Staphylococcus aureus
Experimental: as §1

EMRA-15 = assay: microbe, parasite or virus in culture; type: cell-based, Staphylococcus aureus; settings: EMRA-15, Supplementary Table 5
Experimental: as §1

S. aureus RN4220 = assay: MIC, broth microdilution; type: cell-based, Staphylococcus aureus; settings: sensitive
Experimental: as §1

B. cereus = assay: microbe, parasite or virus in culture; type: cell-based, Bacillus cereus; settings: Bacillus cereus; B. cereus; read-out: MIC
Experimental: as §1

K. pneumoniae 526903 = assay: microbe, parasite or virus in culture; type: cell-based, Klebsiella pneumoniae; settings: K. pneumoniae 526903, sensitive
Experimental: as §1

[4] = test system: K. pneumoniae ATCC 700603; assay: microbe, parasite or virus in culture; type: cell-based, Klebsiella pneumoniae; settings: K. pneumoniae ATCC 700603, SHV-18
Experimental: as §1

K. pneumoniae 518842 = assay: microbe, parasite or virus in culture; type: cell-based, Klebsiella pneumoniae
Experimental: as §1

K. pneumoniae NCTC 13442 = assay: microbe, parasite or virus in culture; type: cell-based, Klebsiella pneumoniae; settings: K. pneumoniae NCTC 13442, OXA-48
Experimental: as §1

A. baumannii 515785 = assay: microbe, parasite or virus in culture; type: cell-based, Acinetobacter baumannii
Experimental: as §1

A. baumannii 515908 = assay: microbe, parasite or virus in culture; type: cell-based, Acinetobacter baumannii; settings: A. baumannii 515908, sensitive
Experimental: as §1

[5] = test system: A. baumannii (IMI, MER resistant; strain ID not given); assay: microbe, parasite or virus in culture; type: cell-based, Acinetobacter baumannii; settings: A. baumannii, no strain ID, MER
Experimental: as §1

A. baumannii 515722 = assay: microbe, parasite or virus in culture; type: cell-based, Acinetobacter baumannii; settings: A. baumannii 515722, sensitive
Experimental: as §1

[6] = test system: LPS-driven NF-kB activation, eLUCidate Raw 264.7 NF-kB reporter cell line; assay: Anti-inflammatory activity, NF-kB luciferase reporter; type: cell-based, murine; settings: 10 ng/ml LPS from E. coli, 6 h
Experimental: (§2) The inhibitory activity of HG2, HG4 and comparator compounds against LPS and LTA was assessed using eLUCidate™ Raw 264.7 NF-kB reporter cell line (AMSBIO) as previously described. The eLUCidate NF-kB reporter cell line is a stably transfected Raw 264.7 cell line which expresses the Renilla luciferase reporter gene under the transcriptional control of the NF-kB response element, a key transcription factor involved in immune and inflammatory responses. This reporter cell line has been used to measure the induction of various toll-like receptors (TLR) by ligands, including LPS and LTA, therefore providing an effective way to evaluate inhibitors of their activations. Briefly, cells were grown and maintained following the manufacturer’s instructions in Dulbecco’s modified essential medium (DMEM) supplemented with 10% fetal calf serum (FCS), 1% L-glutamine, 1% antibiotics (Invitrogen) and containing 3 µg/ml of puromycin (Sigma-Aldrich, UK). To test the inhibitory activity of HG2 and HG4 on LPS or LTA-driven NF-kB activation, eLUCidate™ Raw 264.7 cells grown on 75 cm^2 flasks were detached using trypsin-EDTA solution (Thermofisher, UK) and seeded into 96-well cell culture plates (Greiner Bio-one, UK) at ~25,000 cells per well (counted using Mallasez’s chamber). The next day, wells were emptied, and cells were exposed to optimal concentrations of LPS or LTA determined from preliminary experiments, (i.e. 10 ng/ml of LPS from E. coli or 10 µg/ml of LTA from S. aureus (Invivogen, UK)) in the presence of increasing concentrations of HG2 or HG4 (from 0 to 500 µg/ml, serial 1:2 dilutions). Pyrrolidine dithiocarbamate (PDTC, 100 µM) and polymyxin B (PMB, 100 µM) (Sigma-Aldrich, UK) were used as positive controls based on their well-known activity as anti-inflammatory molecules and blockers/neutralisers of LPS and LTA, respectively. Importantly, all steps were performed using non-pyrogenic plastics and RNase/DNase molecular biology tips to limit the risk of the presence of a trace of LPS/LTA. After 6 h incubation at 37 °C and 5% CO2, wells were emptied, and the cells were treated with 70 µl of ice-cold PBS containing 1% Triton X-100. After 10 min incubation on ice under orbital shaking at 200 rpm, 50 µL of cell lysates were collected and transferred into white 96-well luminescence plates (Dominique Dutscher) already containing 100 µL of Renilla luciferase substrate (Yelen, France). Luminescence signals of the wells were immediately measured using a microplate reader (Biotek Synergy Mx, UK). The luminescence values were expressed as a percentage of control inflammation corresponding to values obtained after treatment with LPS or LTA in the absence of an inhibitor. The IC50 values of PDTC, PMB, HG2 or HG4 on LPS or LTA-mediated inflammation (i.e. the concentration of molecule causing a reduction of 50% of the luciferase’s induction caused by LPS or LTA) were calculated using GraphPad® Prism 7 software.

[7] = test system: LTA-driven NF-kB activation, eLUCidate Raw 264.7 NF-kB reporter cell line; assay: as above; type: cell-based, murine; settings: 10 µg/ml LTA from S. aureus, 6 h
Experimental: as §2

[8] = Pseudomonas aeruginosa, read-out: MIC
[9] = Staphylococcus aureus, read-out: MIC
[10] = Staphylococcus aureus, read-out: Minimum inhibitory Concentrations MICs
[11] = Acinetobacter baumannii, read-out: MIC

O=C(O)c1cn(C2CC2)c2cc(N3CCNCC3)c(F)cc2c1=O [Cip, ciprofloxacin, reference compound]
MIC (List. monocytogenes; Listeria monocytogenes, read-out: Minimum inhibitory Concentrations MICs): 62.5 µg/mL (≈ 189 µM) | MIC ([1]; Listeria monocytogenes, NCTC11994, read-out: MIC): 64 µg/mL (≈ 193 µM) | MIC (E. coli K12; Escherichia coli, read-out: MIC): 0.06 µg/mL (≈ 0.181 µM) | MIC (E. coli; Escherichia coli, read-out: Minimum inhibitory Concentrations MICs): 0.06 µg/mL (≈ 0.181 µM) | MIC (Sal. typhimurium SL1344; Salmonella enterica, read-out: MIC): 0.12 µg/mL (≈ 0.362 µM) | MIC (Sal. typhimurium; Salmonella enterica, read-out: Minimum inhibitory Concentrations MICs): 0.12 µg/mL (≈ 0.362 µM) | MIC (Ent. faecalis JH2-2; Enterococcus faecalis, JH22, read-out: MIC): 64 µg/mL (≈ 193 µM) | MIC (Ent. faecalis; Enterococcus faecalis, read-out: Minimum inhibitory Concentrations MICs): 62.5 µg/mL (≈ 189 µM) | MIC (P. aeruginosa; Pseudomonas aeruginosa, read-out: Minimum inhibitory Concentrations MICs): 0.49 µg/mL (≈ 1.48 µM) | MIC (P. aeruginosa (CF) C3719; [8]): 4 µg/mL (≈ 12.1 µM) | MIC [2, 8]: 0.12 µg/mL (≈ 0.362 µM) | MIC [3, 8]: 4 µg/mL (≈ 12.1 µM) | MIC (P. aeruginosa PA01; [8]): 0.5 µg/mL (≈ 1.51 µM) | MIC (S. aureus EMRSA-15; [9]): > 256 µg/mL | MIC (S. aureus; [10]): > 250 µg/mL | MIC (EMRA-15; [10]): > 250 µg/mL | MIC (S. aureus RN4220; [9]): > 256 µg/mL | MIC (B. cereus): 0.015 µg/mL (≈ 0.0453 µM) | MIC (K. pneumoniae 526903; Klebsiella pneumoniae, read-out: MIC): 0.03 µg/mL (≈ 0.0905 µM) | MIC ([4]; Klebsiella pneumoniae, ATCC700603, read-out: MIC): 0.25 µg/mL (≈ 0.754 µM) | MIC (K. pneumoniae 518842; Klebsiella pneumoniae, 518842): > 128 µg/mL | MIC (K. pneumoniae NCTC 13442; Klebsiella pneumoniae, NCTC13442, read-out: MIC): 64 µg/mL (≈ 193 µM) | MIC (A. baumannii 515785; Acinetobacter baumannii, 515785): > 128 µg/mL | MIC (A. baumannii 515908; [11]): 16 µg/mL (≈ 48.3 µM) | MIC [5, 11]: 16 µg/mL (≈ 48.3 µM) | MIC (A. baumannii 515722; [11]): 16 µg/mL (≈ 48.3 µM)

polymyxin B [reference compound]
Minimum inhibitory Concentrations MICs (List. monocytogenes): 62.5 µg/mL | MIC [1]: 64 µg/mL | MIC (E. coli K12): 2 µg/mL | Minimum inhibitory Concentrations MICs (E. coli; E. coli, Supplementary Table 5): 1.95 µg/mL | MIC (Sal. typhimurium SL1344): 2 µg/mL | Minimum inhibitory Concentrations MICs (Sal. typhimurium): 1.95 µg/mL | MIC (Ent. faecalis JH2-2): 32 µg/mL | Minimum inhibitory Concentrations MICs (Ent. faecalis): 31.25 µg/mL | Minimum inhibitory Concentrations MICs (P. aeruginosa): 1.95 µg/mL | MIC (P. aeruginosa (CF) C3719): 1 µg/mL | MIC [2]: 0.5 µg/mL | MIC [3]: 1 µg/mL | MIC (P. aeruginosa PA01): 2 µg/mL | MIC (S. aureus EMRSA-15): 256 µg/mL | Minimum inhibitory Concentrations MICs (S. aureus; S. aureus, Supplementary Table 5): 250 µg/mL | Minimum inhibitory Concentrations MICs (EMRA-15): 250 µg/mL | MIC (S. aureus RN4220): 256 µg/mL | IC50, LPS-mediated inflammation [6]: 62.26 ± 4.01 µg/mL | IC50, LTA-mediated inflammation [7]: 61.34 ± 3.47 µg/mL | MIC (K. pneumoniae 526903): 4 µg/mL | MIC [4]: 2 µg/mL | MIC (K. pneumoniae 518842; K. pneumoniae 518842, CTX-M): 2 µg/mL | MIC (K. pneumoniae NCTC 13442): 8 µg/mL | MIC (A. baumannii 515785; A. baumannii 515785, OXA-23, OXA-50): 0.5 µg/mL | MIC (A. baumannii 515908): 0.5 µg/mL | MIC [5]: 0.25 µg/mL | MIC (A. baumannii 515722): 0.25 µg/mL
